IFN-β production and IL-6 production data for one compound are collected here from US20210177814A1, “USE OF GUANABENZ OR DERIVATES THEREOF FOR THE TREATMENT OF TYPE I IFN-DEPENDENT PATHOLOGIES” (INSERM (Institut National de la Santé et de la Recherche …, priority 2018, published 2021).

The target of the assay is T1, TLR3 (Mus musculus, UniProt Q99MB1).
T1 construct: endogenous in cells; host or cells: sorted cDC1 from Flt3L-differentiated mouse bone marrow cultures
T1 sequence (Q99MB1 26-905): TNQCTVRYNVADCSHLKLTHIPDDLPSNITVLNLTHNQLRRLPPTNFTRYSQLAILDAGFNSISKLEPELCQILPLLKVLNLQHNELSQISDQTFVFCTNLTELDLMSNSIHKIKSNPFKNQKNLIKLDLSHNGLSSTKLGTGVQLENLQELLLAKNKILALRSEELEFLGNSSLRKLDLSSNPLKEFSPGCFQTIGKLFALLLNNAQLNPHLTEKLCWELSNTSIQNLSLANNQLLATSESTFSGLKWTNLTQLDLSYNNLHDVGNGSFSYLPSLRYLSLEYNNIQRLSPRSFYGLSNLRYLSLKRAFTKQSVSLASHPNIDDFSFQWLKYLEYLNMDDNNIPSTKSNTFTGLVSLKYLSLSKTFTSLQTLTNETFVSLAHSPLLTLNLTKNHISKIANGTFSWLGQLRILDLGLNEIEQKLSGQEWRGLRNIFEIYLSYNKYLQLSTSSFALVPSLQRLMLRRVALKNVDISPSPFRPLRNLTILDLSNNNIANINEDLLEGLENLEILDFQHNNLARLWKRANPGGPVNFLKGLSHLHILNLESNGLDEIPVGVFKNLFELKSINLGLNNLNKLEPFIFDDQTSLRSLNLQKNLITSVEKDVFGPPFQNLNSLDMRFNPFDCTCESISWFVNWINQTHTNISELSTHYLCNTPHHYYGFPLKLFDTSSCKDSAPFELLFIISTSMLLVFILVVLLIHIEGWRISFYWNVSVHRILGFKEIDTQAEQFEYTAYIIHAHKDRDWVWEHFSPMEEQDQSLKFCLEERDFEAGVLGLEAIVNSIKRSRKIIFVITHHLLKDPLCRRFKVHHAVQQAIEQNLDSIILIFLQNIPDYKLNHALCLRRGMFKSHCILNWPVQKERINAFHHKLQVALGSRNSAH
Nature of the assay: Cytokine production by sorted Flt3L-DC cDC1 activated with poly I:C LMW. In kind it is cell-based. As to conditions: sorted cDC1, 10 μg/mL poly I:C LMW 6 h, GBZ 50 μM. How it is done: FIG. 1: Guanabenz inhibits TLR3 and TLR9 activation in mouse Flt3-L DCs and human blood pDCs. A) Sorted bone marrow derived Flt3L-DCs were activated for 6 h with 10 μg/mL poly I:C LMW (TLR3 in DC1) or 1 μM ODN 1585 (TLR9 in pDCs). GBZ was added at 50 μM and inhibited IFN-β and Interleukin-6 (IL-6) production in activated cells. B) hTLR4, hTLR3, hTLR9 and hTLR7 expressed in the reporter HEK-Blue™ cells are inhibited by GBZ. TLR-expressing HEK-Blue™ cells were respectively activated with 100 ng/mL LPS, 10 μg/mL poly I:C LMW, 2.5 μM ODN 2006 or 5 μg/mL imiquimod, respectively. GBZ was added at 50 μM. TLR activity was measured indirectly through SEAP activity as absorbance at 405 nm. […] Protein concentration of IFN-α and TNF-α secreted were measured at the indicated time points or at 16 h. […]
BM-derived DCs were differentiated in vitro from the bone marrow of 6-8 weeks old male mice, using either FLT3 ligand or GM-CSF. […] For sorted Flt3L-DCs, cells were gently harvested at day 7 with cold PBS 2% FCS, centrifuged 1200 rpm 5 min at 4° C., counted and stained with for 30 mins at 4° C. […]
Mouse IFN-β quantification in culture supernatant was performed using the Mouse Interferon Beta ELISA kit (PBL InterferonSource); mouse IL-6, TNFα, IL-10, human TNFα and human IFNα were quantified using ELISA kit (eBioscience) respectively, according to manufacturer instructions. […]

Structures are written as SMILES. “Also recorded” adds a separate entry of the source.

For `NC(N)=N/N=C/c1c(Cl)cccc1Cl` [GBZ, 2-(2,6-dichlorobenzylidene)-hydrazinecarboximidamide], the IFN-β production entry was “nearly abrogated; also recorded: inhibited” and the IL-6 production result is “nearly abrogated; also recorded: inhibited”.
